One data set has as its system melanoma in man. The settings on record: in vivo; cited from earlier work.
For the next data set, the system named is B16 murine melanoma. Kind of data set: Tissue distribution in C57 BL6 mice bearing B16. In kind it is in vivo, mouse. The settings on record: for elimination kinetics: compared with derivative A; for marker of the B16 murine melanoma: mouse, in vivo. As for the experimental part:
The study of the tissue distribution of the ^125 I labelled compounds was performed in mice bearing grafted melanomas (cf. autoradiograms above). […] The animals are sacrificed at different time intervals of 1 to 24 hours after the injection. The blood is collected and the principal organs are excised. Aliquots are weighed and the radioactivity of the samples is measured in a […] 1191 counter (analytic tracer). The counting yield for iodine 125 is 60%. The results are expressed: as a percentage of the injected dose bound per g of tissue (% ID/g); in the form of the ratios [formula] This ratio reflects more precisely the selectivity of a molecule for an organ (tables 2, 4, 6, 8, 10 and 12).

The next data set relates to melanoma. As to conditions: in vivo; cited from earlier work.
A further data set deals with grafted tumors. The settings on record: animals bearing grafted tumors; cited from earlier work.

Each structure is given as a SMILES string.

On to `CC(C)NC(C)Cc1ccc([123I])cc1` (stereo not drawn) [^123 I-IMP], for which the “detection of melanoma in man” value in the data set with melanoma in man was “used for the detection of melanoma in man”.
Turning to `CN(C)CCCNC(=O)c1ccc(I)cc1` [Derivative J], in the data set with B16 murine melanoma, the elimination kinetics entry is “more rapid elimination” and the “marker of the B16 murine melanoma” value was “markers of the B16 murine melanoma”.
`CC(C)N(CCNC(=O)c1ccc(I)cc1)C(C)C` [Derivative G]: the “marker of the B16 murine melanoma” value in the data set on B16 murine melanoma is on record as “markers of the B16 murine melanoma”.
Take `CCN(CC)CCCNC(=O)c1ccc(I)cc1` [Derivative L]: in the data set on B16 murine melanoma, the elimination kinetics result is on record as “more rapid elimination” and the “marker of the B16 murine melanoma” value was “markers of the B16 murine melanoma”.
In the case of `O=C([O-])CC(O)(CC(=O)[O-])C(=O)[O-].[67Ga+3]` [citrate of gallium 67], in the data set on melanoma, the “elimination from the digestive tract” value was “very slow elimination from the digestive tract”; the “localization in the liver and the kidney” value was “late and extensive localization in the liver and the kidney”.
Consider `O=c1[nH]c(=S)[nH]cc1I` [iodothiouracil labelled with ^125 I, iodothiouracil], for which the “localization and treatment of malignant melanoma” value in the data set on grafted tumors was “promising agent for the localization and the treatment of malignant melanoma”.
With `CN(C)CCNC(=O)c1ccc(I)cc1` [Derivative E], the “possibility for use in scanning” value in the data set on B16 murine melanoma (between 3 h and 6 h after administration) was “possibilities for use in scanning between 3 h and 6 h”. Moreover, in the data set on B16 murine melanoma, the elimination kinetics entry was “more rapid elimination” and the “marker of the B16 murine melanoma” value is “markers of the B16 murine melanoma”.

The record behind these values is patent publication US5190741A, “Agents for diagnosing and treating melanomas, aromatic halogenated derivatives usable as such agents and their preparation” (Institut National de la Sante et de la Recherche Medicale …, priority 1989, dated 1993).
